Results from patent US12551458B2, “Topical pharmaceutical composition containing phospholipids” (EGIS GYÓGYSZERGYÁR ZRT., priority 2021, dated 2026).

Legend:
[1] = system: neuropathic pain in a human patient; conditions: topical aqueous solution; cited from earlier work
[2] = Pharmacokinetic studies in rats (blood levels of pregabalin)
pain = conditions: compositions containing 1 and 3% of pregabalin; cited from earlier work
[3] = system: CCI operated paw of rats (neuropathic pain); assay: Rat chronic constriction injury (CCI) model, paw withdrawal threshold with electronic von Frey device; format: in vivo, Wistar rats; conditions: oral 16.66 mg/kg
Source text: Furthermore, based on the article Bennett G J, at al (Pain., A peripheral mononeuropathy in rat that produces disorders of pain sensation like those seen in man. 1988 April; 33(1):87-107) we have developed a method for the examination of the compositions of the present invention. Thus, we have examined the compositions according to the present invention also with a different model for measuring the alleviation of the peripheral neuropathic pain also. Namely, we have carried out examinations on rats using Chronic constriction injury (CCI) model. Three weeks following nerve injury rats were assessed for hind paw mechanical withdrawal thresholds. The paw withdrawal threshold (PWT) was determined with an Electronic von Frey device according to the modified up-down method of Dixon (Efficient analysis of experimental observations., Annu Rev Pharmacol Toxicol. 1980; 20:441-62). […] The method and results are shown in example 3 and on FIG. 9.
Briefly, under isoflurane anesthesia small blunt dissection was made into the skin of rat right thigh then three loosely constrictive ligatures were placed around common sciatic nerve (chronic constriction injury CCI). Three weeks following nerve injury rats were assessed for hind paw mechanical withdrawal thresholds. […]

[4] = system: allodynia in nerve-ligated mice; conditions: cited from earlier work
[5] = Solubility of pregabalin in solvents; conditions: any solvents

For `CC(C)C[C@H](CN)CC(=O)O` [pregabalin], the “Time for which neuropathic pain was reduced” value [1] is given as 6 h, the “Blood levels after oral administration” value ([2]; oral 16.66 mg/kg) is given as “relatively high blood levels” and the “Amount entering the bloodstream during topical treatment” value ([2]; topical treatment) is given as “very small amounts”. For the same molecule, the “Time after which the pain alleviation effect decreased” value (pain) was 1.5 to 2 h, the “Reduction of hypersensitivity after oral administration” value [3] was “not able to reduce hypersensitivity” and the “Time of maximum allodynia alleviating effect” value ([4]; topical 2.5% aqueous solution without other ingredients) was 1 h. The “Alleviating effect after 3 hours and 6 hours” value ([4]; topical 2.5% aqueous solution) was “essentially disappeared” and the Solubility [5] was “poor”.
